These results are taken from PMC12668310, “High‐Throughput Synthesis and Screening of a Cyanimide Library Identifies Selective Inhibitors of ISG15‐Specific Protease mUSP18” (Angewandte Chemie (International Ed. in English), 2025).

SMILES strings stand for the structures.

The target in one experiment is T1, USP30 (Homo sapiens, UniProt Q70CQ3).
T1 sequence (Q70CQ3 57-517): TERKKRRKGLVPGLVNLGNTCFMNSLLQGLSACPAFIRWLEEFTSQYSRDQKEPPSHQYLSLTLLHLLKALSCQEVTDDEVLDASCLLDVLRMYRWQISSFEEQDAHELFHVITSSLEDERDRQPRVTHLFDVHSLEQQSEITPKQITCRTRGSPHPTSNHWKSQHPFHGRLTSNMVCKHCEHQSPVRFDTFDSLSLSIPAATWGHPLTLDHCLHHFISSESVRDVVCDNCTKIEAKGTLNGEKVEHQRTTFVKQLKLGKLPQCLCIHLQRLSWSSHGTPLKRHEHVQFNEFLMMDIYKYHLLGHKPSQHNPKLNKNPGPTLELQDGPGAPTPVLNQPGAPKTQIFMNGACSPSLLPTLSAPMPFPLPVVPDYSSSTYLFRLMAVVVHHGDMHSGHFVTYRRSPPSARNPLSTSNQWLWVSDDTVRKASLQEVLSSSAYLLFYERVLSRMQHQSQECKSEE
Briefly: High-throughput screening, Ub-RhoMP, single dose 1.25 µM. The class given is biochemical. Details: USP30 CD (57-517); purchased Ubiquigent 64-0057-050. To be noted: individual amine building block (plate NCN-5). On the procedure:
(§1) Since the in‐plate synthesis was conducted in 1536‐well Echo plates, the compounds could readily be transferred from these plates into 1536‐well assay plates using acoustic liquid dispensing (Figure 2a) and subjected to HTS. We screened the whole 7536 compound library against a panel of twelve enzymes, including three DUBs from the UCH family, two DUBs from the OTU family, five DUBs from the USP family, plus ISG15 protease USP18, and SUMO protease SENP1. Each compound was tested at a single dose of 1.25 µM, assuming full conversion (10 mM in DMSO of the formed products) during the in‐plate synthesis, using the fluorogenic assay described above. […] The compounds are sorted by the amine building blocks (BB1‐16), and within each BB, sorted by carboxylic acid (CA1‐471), thereby providing a comprehensive and systematic overview of the overall inhibition by each BB and CA combination. Some interesting patterns can be obtained from this map. […] Indeed, BB10 is the privileged scaffold for UCHL1 as it originates from UCHL1 inhibitor 5 (Figure 1). […] On the other hand, OTUD1 and USP32 show a much higher hit rate, and this is even more pronounced for USP30 and ISG15 protease mUSP18, each showing many active compounds distributed over several BB's.
(§2) Purified recombinant enzymes used in this study
(§3) High-throughput screening
(§4) The screens were performed at room temperature in “flat bottom, non-treated, black […]
(§5) µM. The compounds (10 nL each) were transferred from the 1 mM daughter plates to the […]
(§6) Four wells containing DMSO
(§7) (10 nL) and four wells containing NEM (10 mM final concentration) were used in each plate […]
(§8) solution (1.33x final concentration) was added to each well, followed by incubation for 30 min.
(§9) Next, 2 µL of a substrate solution (4x final concentration) was added to each well (Ub-RhoMP[2]
(§10) After 1h or 2h incubation the
(§11) The percentage inhibition was calculated for each well using the […]
(§12) Where FIx is the fluorescence intensity of each well, FIpos is the average fluorescence intensity of the positive (NEM) control wells, and FIneg is the average fluorescence intensity of the negative (DMSO) control wells.

In the next experiment the target is T2, UCHL3 (Homo sapiens, UniProt P15374).
T2 construct: (1-230); made in house
T2 sequence (P15374 1-230): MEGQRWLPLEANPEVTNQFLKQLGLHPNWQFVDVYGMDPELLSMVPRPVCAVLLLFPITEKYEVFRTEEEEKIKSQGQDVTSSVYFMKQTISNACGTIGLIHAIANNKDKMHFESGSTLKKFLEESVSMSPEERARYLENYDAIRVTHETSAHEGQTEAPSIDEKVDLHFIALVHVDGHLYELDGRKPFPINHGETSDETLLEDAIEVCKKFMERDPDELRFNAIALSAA
The description is as above. The class given is biochemical. To be noted: individual amine building block (plate NCN-5); read-out: BB %inhibition UCHL3.

In the next experiment the target is T3, mUSP18 (Mus musculus, UniProt Q9WTV6).
T3 construct: (46-368); His-tag (N); made in house
T3 sequence (Q9WTV6 46-368): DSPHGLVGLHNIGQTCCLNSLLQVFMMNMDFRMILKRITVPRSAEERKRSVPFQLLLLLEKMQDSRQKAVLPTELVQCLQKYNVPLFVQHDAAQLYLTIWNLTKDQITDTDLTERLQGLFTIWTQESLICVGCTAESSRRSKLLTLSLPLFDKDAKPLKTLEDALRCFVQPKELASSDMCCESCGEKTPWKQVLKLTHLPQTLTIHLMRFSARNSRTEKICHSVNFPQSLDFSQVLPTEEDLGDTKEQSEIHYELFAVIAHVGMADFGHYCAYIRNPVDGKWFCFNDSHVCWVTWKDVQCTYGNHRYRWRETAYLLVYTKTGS
Briefly: High-throughput screening, ISG15ct-RhoMP, single dose 1.25 µM. The experiment is classed as biochemical, murine. To be noted: individual amine building block (plate NCN-5); read-out: BB %inhibition mUSP18.

For the next experiment, the target named is T4, OTUB2 (Homo sapiens, UniProt Q96DC9).
T4 sequence (Q96DC9 1-234): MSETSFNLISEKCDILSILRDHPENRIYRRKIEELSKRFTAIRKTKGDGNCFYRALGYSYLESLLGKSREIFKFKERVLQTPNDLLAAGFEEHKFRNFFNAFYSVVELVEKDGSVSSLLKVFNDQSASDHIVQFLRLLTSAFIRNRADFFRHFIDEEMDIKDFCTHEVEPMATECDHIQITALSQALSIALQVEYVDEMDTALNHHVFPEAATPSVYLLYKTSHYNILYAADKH
Briefly: High-throughput screening, Ub-RhoMP, single dose 1.25 µM. The class given is biochemical. On the set-up: (1-234); His6 (cleaved yes); made in house. To be noted: individual amine building block (plate NCN-5); read-out: BB %inhibition OTUB2. On the procedure:
as §1, §2, §3, §4, §5, §6, §7, §8, §9, §10, §11, §12

The next experiment deals with USP16 (Homo sapiens, UniProt Q9Y5T5). The description is as above. The class given is biochemical. On the set-up: (22-823); His-tag (N); made in house. The following applies: individual amine building block (plate NCN-5). The procedure:
as §1, §2, §3, §4, §5, §6, §7, §8, §9, §10, §11, §12

The next experiment has as its target T5, SENP1 (Homo sapiens, UniProt Q9P0U3).
T5 sequence (Q9P0U3 419-644): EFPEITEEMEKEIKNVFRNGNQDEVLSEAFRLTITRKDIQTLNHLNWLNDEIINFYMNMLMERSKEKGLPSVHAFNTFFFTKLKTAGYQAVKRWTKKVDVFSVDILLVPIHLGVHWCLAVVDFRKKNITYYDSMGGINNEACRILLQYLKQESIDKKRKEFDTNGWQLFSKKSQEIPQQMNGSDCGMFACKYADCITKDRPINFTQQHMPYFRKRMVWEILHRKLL
The experiment can be described thus: High-throughput screening, single dose 1.25 µM. The experiment is classed as biochemical. The following applies: individual amine building block (plate NCN-5); read-out: BB %inhibition SENP1. On the procedure: as §1, §2, §3, §4, §5, §6, §7, §8, §9, §10, §11, §12

Sequence of USP16 (Q9Y5T5 22-823): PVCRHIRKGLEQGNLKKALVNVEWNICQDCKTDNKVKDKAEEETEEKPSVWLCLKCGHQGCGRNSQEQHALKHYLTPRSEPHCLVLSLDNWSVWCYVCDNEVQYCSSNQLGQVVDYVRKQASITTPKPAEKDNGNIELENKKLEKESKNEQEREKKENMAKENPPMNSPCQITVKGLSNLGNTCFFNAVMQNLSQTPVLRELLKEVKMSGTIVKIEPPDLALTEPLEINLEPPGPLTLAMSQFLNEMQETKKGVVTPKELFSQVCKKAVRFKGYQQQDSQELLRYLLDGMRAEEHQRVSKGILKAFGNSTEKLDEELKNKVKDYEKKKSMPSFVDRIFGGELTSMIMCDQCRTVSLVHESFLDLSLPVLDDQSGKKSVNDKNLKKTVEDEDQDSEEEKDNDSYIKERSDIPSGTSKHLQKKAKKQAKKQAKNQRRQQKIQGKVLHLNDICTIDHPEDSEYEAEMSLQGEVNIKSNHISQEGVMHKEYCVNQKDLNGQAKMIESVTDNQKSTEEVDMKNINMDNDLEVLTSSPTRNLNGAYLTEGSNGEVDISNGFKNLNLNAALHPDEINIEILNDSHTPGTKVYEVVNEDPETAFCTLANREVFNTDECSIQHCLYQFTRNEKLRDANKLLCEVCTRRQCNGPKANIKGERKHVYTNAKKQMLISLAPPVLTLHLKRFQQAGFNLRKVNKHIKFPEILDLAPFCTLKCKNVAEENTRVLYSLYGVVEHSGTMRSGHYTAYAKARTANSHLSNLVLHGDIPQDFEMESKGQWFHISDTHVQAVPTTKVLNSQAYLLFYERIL

As usually defined, the inhibition is the relative decrease from the control value, in per cent. Consider `N#CN1C[C@H](N)[C@@H](O)C1` [BB13], for which, at USP30, the “BB %inhibition USP30” value was 7.5%. Further, the inhibition at 1.25 µM is 8% on UCHL3, -0.9% at mUSP18, 5.6% on OTUB2 and 10.1% on SENP1. Also, the “BB %inhibition USP16” value at USP16 is recorded as 4.4%.
Regarding `N#CN1CCC2(CCNC2)C1` (stereo not drawn) [BB14], on USP30, the “BB %inhibition USP30” value is 3.9%. In addition, the inhibition at 1.25 µM at UCHL3 is 8.6%; on mUSP18, -1%; on OTUB2, 6.4%; at SENP1, 8.7%. Moreover, the “BB %inhibition USP16” value at USP16 was found to be 5.9%.
`N#CN1C[C@@H](F)[C@@H](N)C1` [BB15]: the “BB %inhibition USP30” value at USP30 is recorded as -2.2%. In addition, the inhibition at 1.25 µM is 1.4% at UCHL3, -5.8% on mUSP18, -0.269% at OTUB2 and 0.022% on SENP1. The “BB %inhibition USP16” value on USP16 is reported as -1.1%.
With `N#CN1CCC(n2cc(N)cn2)CC1` [BB16], the “BB %inhibition USP30” value at USP30 is listed as 0.9%. The inhibition at 1.25 µM at UCHL3 is 2.3%; on mUSP18 it was -4.3%; at OTUB2, 0.0345%; on SENP1, 4%. In addition, at USP16, the “BB %inhibition USP16” value is listed as -0.846%.
